The results in this text go back to US11434226B2, “Salt and polymorph of benzopyrimidinone compound and pharmaceutical composition and use thereof” (SHANGHAI INSTITUTE OF MATERIA MEDICA, CHINESE ACADEMY OF …, priority 2017, dated 2022).

Structures can show the parent of a compound that is named as a salt. Where two headings read alike, the source gives them in different places.

Data set [1] can be described thus: Hygroscopicity of solid forms of hydrochlorate of compound Z. The data set is classed as physicochemical. An excerpt:
(§1) The properties of crystalline form A prepared in Examples 11 or 12, crystalline form B prepared in Example 14 and amorphous substance prepared in Example 15 were compared, the results were shown in the following table 6.

Data set [2] in a line: Crystal stability of solid forms of hydrochlorate of compound Z. The data set is classed as physicochemical.
From the text: as §1

Consider `CCCOc1ccc(NC(=O)CN2CCN(C)CC2)cc1-c1nc(CC)c(CC)c(=O)[nH]1` [form A, 5,6-diethyl-2-[2-n-propoxy-5-(2-(4-methylpiperazin-1-yl)acetamido)phenyl]pyrimidin-4(3H)-one hydrochloride monohydrate (Form A)], for which, in data set [1], the “hygroscopicity, in words” value is “low hygroscopicity”. Moreover, the “hygroscopicity, water absorption” value in data set [1] (65% RH) is recorded as 65% RH, water absorption 2.48%; in data set [1] (80% RH), 80% RH, water absorption 3.41%. Moreover, the figures for the Crystal stability result in data set [2] and in data set [2] (listed as crystal form A) were “stable” and “stable properties”, respectively.
